{
  "source": "ChEMBL document CHEMBL5518165",
  "about": "“M335, a novel small-molecule STING agonist activates the immune response and exerts antitumor effects” (Eur J Med Chem, 2024)",
  "key": {"[1]": {"target": "Stimulator of interferon genes protein (Homo sapiens) (UniProt Q86WV6)", "sequence (Q86WV6 whole entry)": "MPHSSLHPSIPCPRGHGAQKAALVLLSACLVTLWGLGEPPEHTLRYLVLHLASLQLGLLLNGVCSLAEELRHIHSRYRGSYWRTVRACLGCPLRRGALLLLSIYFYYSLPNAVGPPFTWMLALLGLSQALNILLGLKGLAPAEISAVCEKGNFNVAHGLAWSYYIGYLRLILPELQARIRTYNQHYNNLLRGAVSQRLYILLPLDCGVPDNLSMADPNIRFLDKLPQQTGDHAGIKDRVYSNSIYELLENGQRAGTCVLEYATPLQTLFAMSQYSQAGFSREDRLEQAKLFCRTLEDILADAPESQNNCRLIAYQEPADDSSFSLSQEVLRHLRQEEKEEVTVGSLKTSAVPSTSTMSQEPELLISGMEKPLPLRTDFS", "assay": "Agonist activity at STING in human THP-1 cells assessed as increase in TBK1 phosphorylation at 20 uM measured for 4 hrs by Western blotting analysis", "assay_type": "cell-based", "settings": "filed as agonist"}, "THP-1 [2]": {"system": "THP-1", "assay": "Upregulation of TBK1 phosphorylation in STING-knockout human THP-1 cells at 20 uM measured for 4 hrs by Western blotting analysis", "assay_type": "functional, cell-based"}, "[3]": {"target": "Stimulator of interferon genes protein (Homo sapiens) (UniProt Q86WV6)", "assay": "Agonist activity at STING in human THP-1 cells assessed as IRF3 phosphorylation at 20 uM measured for 4 hrs in presence of H-151 by Western blotting analysis", "assay_type": "cell-based"}, "[4]": {"target": "Stimulator of interferon genes protein (Homo sapiens) (UniProt Q86WV6)", "assay": "Agonist activity at STING in human THP-1 cells assessed as increase in CXCL10 mRNA level at 20 uM measured for 4 hrs by qPCR analysis", "assay_type": "cell-based", "settings": "filed as agonist"}, "[5]": {"target": "Stimulator of interferon genes protein (Homo sapiens) (UniProt Q86WV6)", "assay": "Agonist activity at STING in human THP-1 cells assessed as increase in IL6 mRNA level at 20 uM measured for 4 hrs by qPCR analysis", "assay_type": "cell-based", "settings": "filed as agonist"}, "THP-1 [6]": {"system": "THP-1", "assay": "Upregulation of ISG15 mRNA level in STING-knockout human THP-1 cells at 20 uM measured for 4 hrs by qPCR analysis", "assay_type": "functional, cell-based"}, "THP1-Dual KO-STING": {"system": "THP1-Dual KO-STING", "assay": "Upregulation of interferon production in human THP1-Dual KO-STING cells by dual-luciferase reporter assay", "assay_type": "functional, cell-based"}, "[7]": {"target": "Stimulator of interferon genes protein (Homo sapiens) (UniProt Q86WV6)", "assay": "Agonist activity at STING in human THP-1 cells assessed as increase in STING oligomerization by Western blotting analysis", "assay_type": "cell-based", "settings": "filed as agonist, dose 5-40 µM"}, "[8]": {"target": "T1, Stimulator of interferon genes protein (Mus musculus) (UniProt Q3TBT3)", "T1 sequence (whole entry)": "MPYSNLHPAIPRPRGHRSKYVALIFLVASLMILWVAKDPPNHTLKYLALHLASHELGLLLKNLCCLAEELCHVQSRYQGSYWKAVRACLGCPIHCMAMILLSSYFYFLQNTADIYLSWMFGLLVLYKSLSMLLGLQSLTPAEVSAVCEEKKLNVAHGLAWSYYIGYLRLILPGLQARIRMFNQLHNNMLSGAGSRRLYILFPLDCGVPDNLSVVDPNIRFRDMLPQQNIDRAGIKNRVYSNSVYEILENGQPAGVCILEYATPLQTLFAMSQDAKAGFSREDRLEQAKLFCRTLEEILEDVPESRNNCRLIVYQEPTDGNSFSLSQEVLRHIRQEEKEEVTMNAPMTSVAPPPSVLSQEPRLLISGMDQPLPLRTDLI", "assay": "Agonist activity at STING in MEF cells assessed as increase in STING oligomerization by Western blotting analysis", "assay_type": "cell-based", "settings": "filed as agonist"}, "[9]": {"target": "T1, Stimulator of interferon genes protein (Mus musculus)", "assay": "Agonist activity at STING in MEF cells assessed as STING translocation to golgi apparatus by measuring increase in red fluorescence incubated for 1 hr by laser scanning confocal microscope analysis", "assay_type": "cell-based", "settings": "filed as agonist"}, "[10]": {"target": "Stimulator of interferon genes protein (Homo sapiens) (UniProt Q86WV6)", "assay": "Binding affinity to human STING CTD assessed as change in protein denaturation temperature at 10 to 50 uM by thermal shift assay", "settings": "filed as agonist, dose 10-50 µM"}, "Human alphaherpesvirus 1 [11]": {"system": "Human alphaherpesvirus 1", "assay": "Antiviral activity against HSV-1-GFP infected in human THP-1 cells assessed as reduction in viral infection at 10 to 30 uM pre-infected with virus for 48 hrs followed by compound addition and measured after 6 hrs by flow cytometry analysis", "assay_type": "functional, organism-based", "settings": "dose 10-30 µM"}, "Human alphaherpesvirus 1 [12]": {"system": "Human alphaherpesvirus 1", "assay": "Antiviral activity against HSV-1-GFP infected in human HeLa cells assessed as reduction in viral infection by fluorescent microscopy analysis", "assay_type": "functional, organism-based"}, "Human alphaherpesvirus 1 [13]": {"system": "Human alphaherpesvirus 1", "assay": "Antiviral activity against HSV-1-GFP infected in human STING-deficient WT HeLa cells assessed as reduction in viral infection by fluorescent microscopy analysis", "assay_type": "functional, organism-based"}, "MC-38 [14]": {"system": "MC-38", "assay": "Antitumor activity against mouse MC38 cells allografted in C57/BL6 mouse assessed as tumor growth inhibition at 300 ug, IT administered every 2 days relative to control", "assay_type": "functional", "settings": "dose 300 µg"}, "[15]": {"assay": "Toxicity in C57/BL6 mouse allografted with mouse MC38 cells assessed as change in body weight at 300 ug, IT administered every 2 days", "assay_type": "cell-based, MC-38", "settings": "in vivo, other, 48 h, dose 300 µg"}, "MC-38 [16]": {"system": "MC-38", "assay": "Antitumor activity against mouse MC38 cells allografted in C57/BL6 mouse assessed as increase in CD45+ T cells in spleen at 300 ug, IT administered every 2 days by flow cytometry analysis", "assay_type": "functional, cell-based", "settings": "dose 300.0 µg"}, "MC-38 [17]": {"system": "MC-38", "assay": "Antitumor activity against mouse MC38 cells allografted in C57/BL6 mouse assessed as increase in CD3+ T cells in spleen at 300 ug, IT administered every 2 days by flow cytometry analysis", "assay_type": "functional, cell-based", "settings": "dose 300.0 µg"}, "MC-38 [18]": {"system": "MC-38", "assay": "Antitumor activity against mouse MC38 cells allografted in C57/BL6 mouse assessed as increase in CD8+ T cells in spleen at 300 ug, IT administered every 2 days by flow cytometry analysis (reference value: 8.80%)", "assay_type": "functional", "settings": "dose 300 µg"}, "MC-38 [19]": {"system": "MC-38", "assay": "Antitumor activity against mouse MC38 cells allografted in C57/BL6 mouse assessed as increase in CD8+ T cell numbers in tumor tissues at 300 ug, IT administered every 2 days by immunohistochemical staining based analysis", "assay_type": "functional", "settings": "dose 300.0 µg"}, "[20]": {"assay": "Toxicity in […] mouse allografted with mouse CT26 cells assessed as change in body weight at 300 ug, IT administered every 2 days", "assay_type": "cell-based", "settings": "in vivo, other, 48 h, dose 300 µg"}, "CT26 [21]": {"system": "CT26", "assay": "Antitumor activity against mouse CT26 cells allografted in ip dosed […] mouse assessed as reduction in tumor growth administered every 2 days", "assay_type": "functional, organism-based", "settings": "dose 5-20 mg/kg"}, "[22]": {"assay": "Toxicity in […] mouse allografted with mouse CT26 cells assessed as change in body weight at 5 to 20 mg/kg, ip administered every 2 days", "assay_type": "organism-based", "settings": "in vivo, 48 h, dose 5-20 mg/kg"}, "CT26 [23]": {"system": "CT26", "assay": "Antitumor activity against mouse CT26 cells […] mouse assessed as augmentation of CD45+ cells in spleen at 10 mg/kg, ip administered every 2 days (reference value: 35.1%)", "assay_type": "functional"}, "CT26 [24]": {"system": "CT26", "assay": "Antitumor activity against mouse CT26 cells […] mouse assessed as augmentation of CD45+ cells in spleen at 20 mg/kg, ip administered every 2 days (reference value: 35.1%)", "assay_type": "functional", "settings": "time 2 day"}, "CT26 [25]": {"system": "CT26", "assay": "Antitumor activity against mouse CT26 cells […] mouse assessed as augmentation of CD3+ T cells in spleen at 5 mg/kg, ip administered every 2 days (reference value: 13.9%)", "assay_type": "functional"}, "CT26 [26]": {"system": "CT26", "assay": "Antitumor activity against mouse CT26 cells […] mouse assessed as augmentation of CD3+ T cells in spleen at 10 mg/kg, ip administered every 2 days (reference value: 13.9%)", "assay_type": "functional"}, "CT26 [27]": {"system": "CT26", "assay": "Antitumor activity against mouse CT26 cells […] mouse assessed as augmentation of CD8+ T cells in spleen at 5 mg/kg, ip administered every 2 days (reference value: 6.99%)", "assay_type": "functional"}, "CT26 [28]": {"system": "CT26", "assay": "Antitumor activity against mouse CT26 cells […] mouse assessed as augmentation of CD8+ T cells in spleen at 20 mg/kg, ip administered every 2 days (reference value: 6.99%)", "assay_type": "functional", "settings": "time 2 day"}, "[29]": {"target": "Stimulator of interferon genes protein (Homo sapiens) (UniProt Q86WV6)", "assay": "Agonist activity at STING in human THP-1 cells assessed as upregulation of innate immune response related genes by gene ontology analysis", "assay_type": "cell-based", "settings": "filed as agonist"}},
  "note": "Calls of active or inactive are those of the source. The calls are words filed in the database; no cut-off is given here.",
  "data": [
    {"smiles": "CC(NCCC(c1ccccc1)c1ccccc1)c1ccccc1", "note": "(stereo not given) [FENDILINE]", "values": [
      {"measurement": "Activity", "setting": "[1]", "value": "Active"},
      {"measurement": "Activity", "setting": "THP-1 [2]", "value": "inactive"},
      {"measurement": "Activity", "setting": "[3]", "value": "inactive"},
      {"measurement": "Activity", "setting": "[4]", "value": "Active"},
      {"measurement": "Activity", "setting": "[5]", "value": "Active"},
      {"measurement": "Activity", "setting": "THP-1 [6]", "value": "inactive"},
      {"measurement": "Activity", "setting": "THP1-Dual KO-STING", "value": "inactive"},
      {"measurement": "Activity", "setting": "[7]", "value": "Dose-Dependent Effect"},
      {"measurement": "Activity", "setting": "[8]", "value": "Active"},
      {"measurement": "Activity", "setting": "[9]", "value": "Active"},
      {"measurement": "Activity", "setting": "[10]", "value": "Active"},
      {"measurement": "Activity", "setting": "Human alphaherpesvirus 1 [11]", "value": "Active"},
      {"measurement": "Activity", "setting": "Human alphaherpesvirus 1 [12]", "value": "Active"},
      {"measurement": "Activity", "setting": "Human alphaherpesvirus 1 [13]", "value": "Active"},
      {"measurement": "TGI", "setting": "MC-38 [14]", "value": 82, "unit": "%"},
      {"measurement": "Activity", "setting": "[15]", "value": "Non-Toxic"},
      {"measurement": "Activity", "setting": "MC-38 [16]", "value": "Active"},
      {"measurement": "Activity", "setting": "MC-38 [17]", "value": "Active"},
      {"measurement": "Activity", "setting": "MC-38 [18]", "value": 14.3, "unit": "%"},
      {"measurement": "Activity", "setting": "MC-38 [19]", "value": "Active"},
      {"measurement": "Activity", "setting": "[20]", "value": "Non-Toxic"},
      {"measurement": "Activity", "setting": "CT26 [21]", "value": "Dose-Dependent Effect"},
      {"measurement": "Activity", "setting": "[22]", "value": "Non-Toxic"},
      {"measurement": "Activity", "setting": "CT26 [23]", "value": 56.3, "unit": "%"},
      {"measurement": "Activity", "setting": "CT26 [24]", "value": 76.1, "unit": "%"},
      {"measurement": "Activity", "setting": "CT26 [25]", "value": 20.3, "unit": "%"},
      {"measurement": "Activity", "setting": "CT26 [26]", "value": 28.6, "unit": "%"},
      {"measurement": "Activity", "setting": "CT26 [27]", "value": 12.7, "unit": "%"},
      {"measurement": "Activity", "setting": "CT26 [28]", "value": 21, "unit": "%"},
      {"measurement": "Activity", "setting": "[29]", "value": "Active"}
    ]}
  ]
}
